For the experiment, the target named is T1, BCAT2 (Homo sapiens, UniProt O15382).
T1 sequence (O15382 28-392): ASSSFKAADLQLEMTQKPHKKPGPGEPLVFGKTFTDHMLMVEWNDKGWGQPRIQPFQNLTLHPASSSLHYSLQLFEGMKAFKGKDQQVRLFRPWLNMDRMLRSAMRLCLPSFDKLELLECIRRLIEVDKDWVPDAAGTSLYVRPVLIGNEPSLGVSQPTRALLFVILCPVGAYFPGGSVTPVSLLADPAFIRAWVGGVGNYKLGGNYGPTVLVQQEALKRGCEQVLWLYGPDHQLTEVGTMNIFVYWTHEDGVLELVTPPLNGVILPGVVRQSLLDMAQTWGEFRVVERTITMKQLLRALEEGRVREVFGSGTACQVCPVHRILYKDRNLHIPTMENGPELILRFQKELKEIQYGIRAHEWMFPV
Description: BCAT2 in vitro enzyme inhibition assay (resazurin/diaphorase-coupled fluorescence). It is filed as biochemical. To be noted: average where tested multiple times. The protocol:
BCAT2 In Vitro Enzyme Inhibition Assay
1.67× hBCAT2 Enzyme Mix: 0.33 μg/mL hBCAT2, 1× Buffer
2.5× Substrate Mix: 460 μM L-leucine, 420 μM α-KetoGlutarate, 10 U/mL glutamate dehydrogenase, 10 mM NAD, 30 μg/mL diaphorase, 20 μm Resazurin
BCAT2 enzyme stock solution was diluted to prepare a 1.67× hBCAT2 Enzyme Mix. 1 μL of test compound was first added to the reaction wells followed by 30 μL of 1.67× hBCAT2 Enzyme Mix and incubated at room temperature (25° C.) for one hour. Meanwhile the Substrate Mix was prepared. The reaction was initiated by the addition of 20 μL of the 2.5× Substrate Mix, bringing the final reaction mix of all components to 1×. Reactions were quenched after one hour by the addition of 25 μL of 6% SDS and reaction progress was measured via fluorescence read (Ex 540/Em 590).
Test Compound Preparation:
Test compounds were prepared at 50× final concentration in DMSO, 1 to 3 dilutions were made for 10 points. The compounds were added to the assay as a 1 to 50 dilution (1 μL in 50 μL) to yield a top assay final concentration of 100 μM, decreasing 3-fold for 10 points. Each compound dilution series test also included an assay max (1 μL DMSO Added in lieu of compound, Full Reaction Components Included) and Min (1 μL DMSO Added in lieu of compound, 30 μl of 1.67× hBCAT2 Enzyme Mix replated by 30 μL of 1× Buffer). All tests were performed in technical duplicate.
Where a compound was tested multiple times, the average value of the tests is reported.
For orientation: Resazurin is reduced to fluorescent resorufin, in cell work by metabolically active cells.

The IC50 is the concentration at which inhibition is half-maximal. `CS(=O)(=O)O[C@@H]1[C@@H](NC(=O)c2ncc(Cl)s2)CCC[C@H]1n1c(-c2ccccc2F)nc2cnc(-c3nc[nH]n3)cc21` [Example 448, (1R,2S,6R)-2-(5-chlorothiazole-2-carboxamido)-6-(2-(2-fluorophenyl)-6-(1H-1,2,4-triazol-3-yl)-1H-imidazo[4,5-c]pyridin-1-yl)cyclohexyl methanesulfonate] gave an IC50 of 500 to 1000 nM.
For the compound `CO[C@H]1C[C@H](NC(=O)c2ncc(Cl)s2)C[C@H](n2c(-c3ccccc3C#N)nc3cnc(-c4nc[nH]n4)cc32)C1` (stereo in doubt) [Example 445, 5-chloro-N-((1R,3S,5S)-3-(2-(2-cyanophenyl)-6-(1H-1,2,4-triazol-3-yl)-1H-imidazo[4,5-c]pyridin-1-yl)-5-methoxycyclohexyl)thiazole-2-carboxamide], the IC50 lay within 100 to 500 nM.
As to `CC(C)Cc1nc2cnc(-c3ncc[nH]3)cc2n1[C@@H]1CCC[C@H](NC(=O)c2ncc(Cl)s2)C1` [Example 361, N-((1S,3R)-3-(6-(1H-imidazol-2-yl)-2-isobutyl-1H-imidazo[4,5-c]pyridin-1-yl)cyclohexyl)-5-chlorothiazole-2-carboxamide], the IC50 was at most 100 nM.
Compound `CN(C)Cc1ccccc1-c1nc2cnc(-c3nc[nH]n3)cc2n1[C@@H]1CCC[C@H](NC(=O)c2ncc(Cl)s2)C1` [Example 375, 5-chloro-N-((1S,3R)-3-(2-(2-((dimethylamino)methyl)phenyl)-6-(1H-1,2,4-triazol-3-yl)-1H-imidazo[4,5-c]pyridin-1-yl)cyclohexyl)thiazole-2-carboxamide] gave an IC50 of 500 to 1000 nM.
Consider `CS(=O)(=O)N1C[C@@H](NC(=O)c2ncc(Cl)s2)C[C@@H](n2c(-c3ccccc3F)nc3cnc(-c4nc[nH]n4)cc32)C1` [Example 461, 5-chloro-N-((3S,5R)-5-(2-(2-fluorophenyl)-6-(1H-1,2,4-triazol-3-yl)-1H-imidazo[4,5-c]pyridin-1-yl)-1-(methylsulfonyl)piperidin-3-yl)thiazole-2-carboxamide], for which the IC50 is at most 100 nM.
Regarding `COC(=O)O[C@@H]1[C@@H](NC(=O)c2ncc(Cl)s2)CCC[C@H]1n1c(-c2ccccc2F)nc2cnc(-c3nc[nH]n3)cc21` [Example 447, (1R,2S,6R)-2-(5-chlorothiazole-2-carboxamido)-6-(2-(2-fluorophenyl)-6-(1H-1,2,4-triazol-3-yl)-1H-imidazo[4,5-c]pyridin-1-yl)cyclohexyl methyl carbonate], the half-maximal inhibitory concentration (IC50) was in the range of 100 to 500 nM.
In turn, `CO[C@@H]1C[C@@H](NC(=O)c2ccc(Cl)s2)C[C@@H](n2c(CC(C)C)nc3cnc(-c4ncccn4)cc32)C1` (single isomer, unassigned) [Example 438] came in with a half-inhibitory concentration (IC50) of 100 to 500 nM.
With `CC(C)Cc1nc2cnc(-c3nc[nH]n3)cc2n1[C@@H]1CCC[C@H](NC(=O)c2ncc(Cl)s2)[C@@H]1O` [Example 408, 5-chloro-N-((1S,2S,3R)-2-hydroxy-3-(2-isobutyl-6-(1H-1,2,4-triazol-3-yl)-1H-imidazo[4,5-c]pyridin-1-yl)cyclohexyl)thiazole-2-carboxamide], the IC50 is at most 100 nM.
`CC(C)Cc1nc2cnc(-n3cc(F)cn3)cc2n1[C@H]1C[C@H](O)C[C@@H](NC(=O)c2ncc(Cl)s2)C1` [Example 222, 5-chloro-N-((1S,3R,5R)-3-(6-(4-fluoro-1H-pyrazol-1-yl)-2-isobutyl-1H-imidazo[4,5-c]pyridin-1-yl)-5-hydroxycyclohexyl)thiazole-2-carboxamide] displayed an IC50 above 1000 nM.
The compound `O=C(NC1COCC(n2c(-c3ncccc3F)nc3cnc(-n4ccnn4)cc32)C1)c1ncc(C(F)F)s1` (single isomer, unassigned) [Example 145, 5-(difluoromethyl)-N-(5-(2-(3-fluoropyridin-2-yl)-6-(1H-1,2,3-triazol-1-yl)-1H-imidazo[4,5-c]pyridin-1-yl)tetrahydro-2H-pyran-3-yl)thiazole-2-carboxamide] showed an IC50 above 1000 nM.
`COCCOc1ccccc1-c1nc2cnc(-c3nc[nH]n3)cc2n1[C@@H]1CCC[C@H](NC(=O)c2ncc(Cl)s2)C1` [Example 464, 5-chloro-N-((1S,3R)-3-(2-(2-(2-methoxyethoxy)phenyl)-6-(1H-1,2,4-triazol-3-yl)-1H-imidazo[4,5-c]pyridin-1-yl)cyclohexyl)thiazole-2-carboxamide] gave an IC50 of at most 100 nM.
On to `CO[C@@H]1C[C@@H](NC(=O)c2ncc(Cl)s2)C[C@@H](n2c(CC(C)C)nc3cnc(-c4nc(C)co4)cc32)C1` [Example 410, 5-chloro-N-((1S,3R,5R)-3-(2-isobutyl-6-(4-methyloxazol-2-yl)-1H-imidazo[4,5-c]pyridin-1-yl)-5-methoxycyclohexyl)thiazole-2-carboxamide], for which the concentration for half-maximal inhibition (IC50) was above 1000 nM.
In turn, `CO[C@@H]1C[C@@H](NC(=O)c2ncc(Cl)s2)C[C@@H](n2c(CC(C)C)nc3cnc(-n4nccn4)cc32)C1` (single isomer, unassigned) [Example 422] showed an IC50 above 1000 nM.
Then `CC(C)Cc1nc2cnc(-c3nc[nH]n3)cc2n1[C@H]1C[C@@H](NC(=O)c2ccc(Cl)s2)CC(F)(F)C1` (stereo in doubt) [Example 453, 5-chloro-N-((1R,5S)-3,3-difluoro-5-(2-isobutyl-6-(1H-1,2,4-triazol-3-yl)-1H-imidazo[4,5-c]pyridin-1-yl)cyclohexyl)thiophene-2-carboxamide], with 100 to 500 nM; and `O=C(N[C@H]1CCC[C@@H](n2c(-c3ccccc3F)nc3cnc(-n4ccccc4=O)cc32)C1)c1ncc(Cl)s1` [Example 357, 5-chloro-N-((1S,3R)-3-(2-(2-fluorophenyl)-6-(2-oxopyridin-1(2H)-yl)-1H-imidazo[4,5-c]pyridin-1-yl)cyclohexyl)thiazole-2-carboxamide], with 500 to 1000 nM; and `C[C@H]1CCCN1c1cc2c(cn1)nc(-c1ccccc1F)n2[C@@H]1CCC[C@H](NC(=O)c2ncc(Cl)s2)C1` [Example 194, 5-chloro-N-((1S,3R)-3-(2-(2-fluorophenyl)-6-((S)-2-methylpyrrolidin-1-yl)-1H-imidazo[4,5-c]pyridin-1-yl)cyclohexyl)thiazole-2-carboxamide], with 500 to 1000 nM.
`COC[C@@H]1CCCN1c1cc2c(cn1)nc(-c1ccccc1F)n2[C@@H]1CCC[C@H](NC(=O)c2ncc(Cl)s2)C1` [Example 197, 5-chloro-N-((1S,3R)-3-(2-(2-fluorophenyl)-6-((S)-2-(methoxymethyl)pyrrolidin-1-yl)-1H-imidazo[4,5-c]pyridin-1-yl)cyclohexyl)thiazole-2-carboxamide]: the IC50 is above 1000 nM.
The same measure for `O=C(NC1COCC(n2c(-c3ccccn3)nc3cnc(-n4ccnn4)cc32)C1)c1ncc(C(F)F)s1` (single isomer, unassigned) [Example 147, 5-(difluoromethyl)-N-(5-(2-(pyridin-2-yl)-6-(1H-1,2,3-triazol-1-yl)-1H-imidazo[4,5-c]pyridin-1-yl)tetrahydro-2H-pyran-3-yl)thiazole-2-carboxamide]: above 1000 nM.
The compound `O=C(N[C@H]1CCC[C@@H](n2c(-c3ccccc3OCCO)nc3cnc(-c4nc[nH]n4)cc32)C1)c1ncc(Cl)s1` [Example 382, 5-chloro-N-((1S,3R)-3-(2-(2-(2-hydroxyethoxy)phenyl)-6-(1H-1,2,4-triazol-3-yl)-1H-imidazo[4,5-c]pyridin-1-yl)cyclohexyl)thiazole-2-carboxamide] returned an IC50 of at most 100 nM.
